{
  "source": "patent US20210046071A1",
  "about": "“TETRACYCLIC COMPOUNDS AND THEIR SALTS, COMPOSITIONS, AND METHODS FOR THEIR USE” (Senhwa Biosciences, Inc., priority 2019, published 2021)",
  "key": {"MIA PaCa-2": {"system": "MIA PaCa-2", "assay": "Alamar Blue cell viability assay, MIA PaCa-2", "assay_type": "cell-based", "settings": "Homo sapiens; MIA PaCa-2, Pancreatic", "method": "(§1) The effect of Compound I on cell viability was assessed by Alamar Blue assay of metabolic activity in various cancer cell lines."}, "normal cells": {"system": "normal cells", "assay": "Alamar Blue cell viability assay, normal cells", "assay_type": "cell-based", "settings": "compared with cancer cell lines", "method": "as §1"}, "NCI-H460": {"system": "NCI-H460", "assay": "Alamar Blue cell viability assay, NCI-H460", "assay_type": "cell-based", "settings": "Homo sapiens; NCI-H460, Lung", "method": "as §1"}, "solid malignancy": {"system": "solid malignancy", "assay": "Dose escalation study in patients, best response / tumor shrinkage", "assay_type": "in vivo, human", "method": "Pharmacokinetic studies and dose escalation studies were conducted in adult patients with metastatic, recurrent, locally, advanced, or unresectable solid malignancy (patients with histologically and/or cytologically confirmed solid malignancy), who received prior anti-cancer treatment(s) until disease progression, at 10 different dose levels of Compound I. Groups 1-7 were administered intravenously on days 1 and 8 of a 4-week cycle at 50, 100, 150, 200, 250, 325, and 475 mg/m^2 (lyophilized formulation), respectively. Groups 8-10 were administered intravenously on days 1,8, and 15 of a 4-week cycle at 325, 475, and 650 mg/m^2 (lyophilized formulation), respectively. Each patient received each dose over 1 hour by IV infusion on days described above.\nThe duration on therapy at each dose level for evaluable patients is depicted in FIG. 8.\nIn the study described in Example 3, 18 patients were diagnosed with metastatic breast cancer. […] This study was conducted to evaluate predictive biomarkers of response to Compound I and to explore the relationship between germline HRD aberrations and outcomes of Compound I treatments.\nIn the study described in Example 3, 12 patients harbored BRCA1 or BRCA2 mutation. From the same group of 12 patients harboring BRCA1 or BRCA2 mutation, 8 patients had breast cancer (FIG. 5). Of the 8 patients, 6 patient harbored BRCA2 mutation and had breast cancer (FIG. 6). In FIGS. 4-6, each bar represents an individual in a treatment Group as indicated by the Group number corresponding to the treatment Groups in Example 3."}, "[1]": {"settings": "of the 40 patients treated, 34 discontinued"}},
  "data": [
    {"compound": "Cc1cnc(CNC(=O)c2c(=O)c3ccc(N4CCCN(C)CC4)nc3n3c2sc2ccccc23)cn1", "note": "[Compound I, 2-(4-Methyl-[1,4]diazepan-1-yl)-5-oxo-5H-7-thia-1,11b-diaza-benzo[c]fluorene-6-carboxylic acid (5-methyl-pyrazin-2-ylmethyl)-amide]", "values": [
      {"measurement": "EC50", "setting": "MIA PaCa-2", "result": 74, "unit": "nM"},
      {"measurement": "Activity in normal cells", "setting": "normal cells", "result": "significantly less active"},
      {"measurement": "EC50", "setting": "NCI-H460", "result": 38, "unit": "nM"},
      {"measurement": "Response of a patient who harbored a PALB2 mutation", "setting": "solid malignancy; Group 10, 650 mg/m^2, CT scans, 6-month follow-up", "result": "partial response (PR)"},
      {"measurement": "Patients discontinued due to objective progressive disease", "setting": "solid malignancy; [1]", "result": 29},
      {"measurement": "Patients discontinued due to symptomatic progression of disease", "setting": "solid malignancy; [1]", "result": 4},
      {"measurement": "Patients with stable disease as best response for >4 cycles", "setting": "solid malignancy; of the 40 patients treated, 2 with breast cancer, 4 germline BRCA2, 2 somatic BRCA1/2", "result": 6, "unit": "patients"},
      {"measurement": "Patients with confirmed partial response as best response", "setting": "solid malignancy; of the 40 patients treated, 3 with breast cancer, 2 germline BRCA2, 1 germline BRCA2 VUS, germline PALB2", "result": 4, "unit": "patients"},
      {"measurement": "Outcome in 8 patients who had received prior PARP inhibitor therapy", "setting": "solid malignancy; only 2 of them had BRCA2 mutations", "result": "all had early progression after ≤2 cycles"},
      {"measurement": "Dose at which patients with BRCA2 mutation responded, tumor shrinkage observed", "setting": "solid malignancy; patients with BRCA2 mutation", "result": "greater than or equal to 150 mg/m^2"}
    ]}
  ]
}
